Experimental data from patent US11701345B2, “Car activator agents for cyclophosphamide-based treatments of cancer” (UNIVERSITY OF MARYLAND, BALTIMORE, priority 2017, dated 2023).
Entries after “also recorded” stand apart in the source; their conditions may differ.

Legend:
SU-DHL-4 cells = experiment: Hepatocyte/lymphoma co-culture with CHOP: cancer cell death, viability, caspase-3; assay type: cell-based, human
Procedure: HPH were cultured in collagen-coated 12-well plates and pretreated with vehicle control (0.1% DMSO) or hCAR activator (1 mmol/L) for 24 hours. The wells were then separated with […] polycarbonate membrane inserts (Sigma-Aldrich). A total of 0.5×10^6 SU-DHL-4 cells suspended in supplemented Williams' Medium E were transferred into the insert chamber with a final volume of 2 mL/well. In separate coculture experiments, HPH were replaced with either WT or CAR-KO HepaRG cells. The cocultures were exposed to designated concentrations of the chemotherapy drugs in CHOP in the presence or absence of hCAR activator for various time intervals, as indicated.
(§1) Homogenate proteins from treated HPH, H9c2 or HepaRG cells were resolved on NuPAGE Novex Bis-Tris 4% to 12% gels (Life Technologies) and electrophoretically transferred onto immobilon-P polyvinylidene difluoride membranes. Membranes were incubated with specific antibodies against human CAR (Perseus Proteomics), cleaved caspase-3 (Cell Signaling Technology), or g-H2AX (Millipore), diluted 1:1,000, 1:1,000, and 1:400, respectively. b-Actin was used to normalize protein loading. Following incubation with horseradish peroxidase goat antimouse or anti-rabbit IgG antibody, membranes were developed using SuperSignal West Pico Chemiluminescent Substrate (Thermo Scientific). Western blot signals were quantified by densitometry using ImageJ software from the National Institutes of Health.
HPHs and H9c2 rat cardiomyocytes were seeded at 7.5×10^4 cells per well in 96-well plates. HPH were cultured for 24 hours before treatment with hCAR activator (1 mmol/L) or vehicle control (0.1% DMSO), followed by treatment with the chemotherapy drugs included in CHOP at a range of concentrations. Culture medium containing CHOP drugs and metabolites was exchanged between the cell types at pre-determined time points. A typical 3-[4,5-dimethylthiazol-2-yl]-2,5 diphenyl tetrazolium bromide (MTT) assay was carried out as described previously (21). Cell viability was expressed as the percentage of vehicle control (0.1% DMSO). Cocultured cells were assembled and treated as described above. The viability of the SU-DHL-4 cells was determined at selected time points with a Cellometer Auto T4 (Nexcelom Biosciences) using trypan blue exclusion.

EL4-derived xenograft = EL4-derived xenograft in hCAR transgenic mice treated with CHOP; assay type: in vivo, mouse; conditions: hCAR-TG mice, compared with vehicle, CITCO and CHOP controls; FIGS. 13-14
Procedure: The effects of the novel hCAR activator e.g. CITCO on the CHOP based anticancer therapy has been examined in EL4-derived xenograft hCAR transgenic mouse model (FIG. 12). The tumor volume reduction was measured to determine the effects of hCAR activator on the CHOP treatment upon xenograft tumor model in mouse.

H9c2 cells = experiment: CHOP cytotoxicity in side-toxic H9c2 cells; assay type: cell-based, rat; conditions: FIGS. 10A-10C, 11A-11F
Procedure: as §1
HPHs and H9c2 rat cardiomyocytes were seeded at 7.5×10^4 cells per well in 96-well plates. […] Culture medium containing CHOP drugs and metabolites was exchanged between the cell types at pre-determined time points. […] Cell viability was expressed as the percentage of vehicle control (0.1% DMSO). […] The viability of the SU-DHL-4 cells was determined at selected time points with a Cellometer Auto T4 (Nexcelom Biosciences) using trypan blue exclusion.

Question: How did the “effect on CHOP anticancer activity (cancer cell death)” value (SU-DHL-4 cells; hepatocyte/lymphoma co-culture, added to CHOP, FIGS. 10B-C) turn out when Clc1ccc(-c2nc3sccn3c2/C=N/OCc2ccc(Cl)c(Cl)c2)cc1 [CITCO, (E)-6-(4-chlorophenyl)imidazo[2,1-b]thiazole-5-carbaldehyde O-(3,4-dichlorobenzyl) oxime] was run?
Answer: enhances CHOP-mediated cytoxicity; also recorded: potentiates the beneficial effects of CHOP in causing cancer cell death

Question: What about the “Caspase-3 expression on addition to CHOP” value (SU-DHL-4 cells; lymphoma cells, FIGS. 11A-11F) of the same molecule?
Answer: induction of apoptosis protein caspase-3; also recorded: dose dependent response of Caspase-3 expression

Question: What about the “effect on therapeutic effects of CHOP (tumor volume, tumor mass)” value (EL4-derived xenograft) of the same molecule?
Answer: potentiate the therapeutic effects of the CHOP regimen

Question: And the “effect on CHOP-mediated cytotoxicity in H9c2 cells” value (H9c2 cells)?
Answer: not H9c2 cells
